Our source for the remaining binding values is paper PMC10507085, “Pharmacological inhibition of TBK1/IKKε blunts immunopathology in a murine model of SARS-CoV-2 infection” (Nature Communications, 2023).

Targets include KIT-autoinhibited (Homo sapiens, UniProt P10721); PTK2B (Homo sapiens, UniProt Q14289); CAMK4 (Homo sapiens, UniProt Q16566); INSR (Homo sapiens, UniProt P06213); SNRK (Homo sapiens, UniProt Q9NRH2); ROCK1 (Homo sapiens, UniProt Q13464); MAP3K11 (Homo sapiens, UniProt Q16584); MAPK10 (Homo sapiens, UniProt P53779); TNNI3K (Homo sapiens, UniProt Q59H18); BMP2K (Homo sapiens, UniProt Q9NSY1); PIK3C2B (Homo sapiens, UniProt O00750); TGFBR2 (Homo sapiens, UniProt P37173); TAOK2 (Homo sapiens, UniProt Q9UL54); CDK15 (Homo sapiens, UniProt Q96Q40); TNK2 (Homo sapiens, UniProt Q07912); PKMYT1 (Homo sapiens, UniProt Q99640); GRK1 (Homo sapiens, UniProt Q15835).

Holding throughout (experiment): biochemical
Holding throughout (set-up): KINOMEscan competition binding, DNA-tagged kinase against immobilised ligand, qPCR read-out
Common to all, as to conditions: read-out: Percent Control
A general note: In qPCR the cycle at which signal appears reflects the starting amount.

Experiment [1] concerns the target T1, RSK4(Kin.Dom.2-C-terminal) (Homo sapiens, UniProt Q9UK32).
T1 construct: gene RPS6KA6; Kin.Dom.2 C-terminal

For a further experiment, the target named is T2, PAK7 (Homo sapiens, UniProt Q9P286).
T2 construct: gene PAK5

The target of a further experiment is T3, ZAK (Homo sapiens, UniProt Q9NYL2).
T3 construct: gene MAP3K20

Chain of PIK3C2B (O00750 whole entry): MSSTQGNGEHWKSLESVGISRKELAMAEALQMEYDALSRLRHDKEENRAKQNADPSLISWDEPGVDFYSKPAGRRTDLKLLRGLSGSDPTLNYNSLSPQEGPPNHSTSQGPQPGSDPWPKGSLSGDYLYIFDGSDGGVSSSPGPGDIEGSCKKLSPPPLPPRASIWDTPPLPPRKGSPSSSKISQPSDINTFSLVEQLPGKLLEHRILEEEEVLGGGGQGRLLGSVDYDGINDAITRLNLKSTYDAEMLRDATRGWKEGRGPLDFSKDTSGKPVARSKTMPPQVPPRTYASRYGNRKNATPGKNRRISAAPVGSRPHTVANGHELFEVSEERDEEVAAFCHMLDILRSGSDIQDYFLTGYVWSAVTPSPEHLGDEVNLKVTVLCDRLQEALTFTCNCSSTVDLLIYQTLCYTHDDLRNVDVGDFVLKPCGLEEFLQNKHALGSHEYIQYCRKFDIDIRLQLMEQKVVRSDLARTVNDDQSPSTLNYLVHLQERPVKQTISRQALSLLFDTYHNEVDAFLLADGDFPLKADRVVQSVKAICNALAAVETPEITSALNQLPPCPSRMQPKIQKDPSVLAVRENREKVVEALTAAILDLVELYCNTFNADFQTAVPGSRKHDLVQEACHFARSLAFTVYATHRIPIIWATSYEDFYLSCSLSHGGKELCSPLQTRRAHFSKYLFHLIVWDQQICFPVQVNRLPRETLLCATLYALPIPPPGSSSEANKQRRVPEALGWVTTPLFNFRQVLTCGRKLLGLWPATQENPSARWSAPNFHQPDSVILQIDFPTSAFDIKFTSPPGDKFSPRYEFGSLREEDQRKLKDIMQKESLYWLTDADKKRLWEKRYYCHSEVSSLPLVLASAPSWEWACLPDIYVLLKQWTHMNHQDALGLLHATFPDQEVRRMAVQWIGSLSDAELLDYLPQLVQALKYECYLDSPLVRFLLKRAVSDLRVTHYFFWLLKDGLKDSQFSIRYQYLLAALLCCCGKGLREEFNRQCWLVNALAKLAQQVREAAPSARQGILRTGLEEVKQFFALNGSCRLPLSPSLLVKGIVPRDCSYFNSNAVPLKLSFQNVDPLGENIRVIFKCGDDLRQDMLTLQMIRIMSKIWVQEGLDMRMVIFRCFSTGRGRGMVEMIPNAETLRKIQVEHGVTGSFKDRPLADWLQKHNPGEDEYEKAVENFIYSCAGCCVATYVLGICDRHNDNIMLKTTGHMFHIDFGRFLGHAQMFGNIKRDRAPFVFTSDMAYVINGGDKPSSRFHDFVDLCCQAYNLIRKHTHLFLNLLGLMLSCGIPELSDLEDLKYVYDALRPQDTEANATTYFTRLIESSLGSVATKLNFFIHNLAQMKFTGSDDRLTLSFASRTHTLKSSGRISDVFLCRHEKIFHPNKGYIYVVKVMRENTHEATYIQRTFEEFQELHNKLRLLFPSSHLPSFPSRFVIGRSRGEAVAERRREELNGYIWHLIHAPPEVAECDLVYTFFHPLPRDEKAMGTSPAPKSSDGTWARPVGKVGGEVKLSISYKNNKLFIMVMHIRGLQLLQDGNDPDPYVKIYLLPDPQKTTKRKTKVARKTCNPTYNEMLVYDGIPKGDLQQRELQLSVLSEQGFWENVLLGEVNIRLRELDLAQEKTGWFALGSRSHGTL
Chain of GRK1 (Q15835 whole entry): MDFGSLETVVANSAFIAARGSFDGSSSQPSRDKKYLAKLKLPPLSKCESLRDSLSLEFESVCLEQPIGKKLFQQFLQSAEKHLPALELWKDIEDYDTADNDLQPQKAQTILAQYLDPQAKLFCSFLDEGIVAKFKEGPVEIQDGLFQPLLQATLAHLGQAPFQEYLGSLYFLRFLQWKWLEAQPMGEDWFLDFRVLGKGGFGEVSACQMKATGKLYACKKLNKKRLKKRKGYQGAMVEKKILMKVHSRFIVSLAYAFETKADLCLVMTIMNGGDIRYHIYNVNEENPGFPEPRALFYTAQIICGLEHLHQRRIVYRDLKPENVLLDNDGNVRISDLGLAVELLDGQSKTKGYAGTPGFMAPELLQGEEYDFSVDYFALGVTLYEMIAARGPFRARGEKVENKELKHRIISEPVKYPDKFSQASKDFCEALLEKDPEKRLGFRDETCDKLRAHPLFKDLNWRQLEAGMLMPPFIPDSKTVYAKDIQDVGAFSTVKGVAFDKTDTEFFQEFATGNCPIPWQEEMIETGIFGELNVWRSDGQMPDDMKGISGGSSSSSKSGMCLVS
Chain of INSR (P06213 whole entry): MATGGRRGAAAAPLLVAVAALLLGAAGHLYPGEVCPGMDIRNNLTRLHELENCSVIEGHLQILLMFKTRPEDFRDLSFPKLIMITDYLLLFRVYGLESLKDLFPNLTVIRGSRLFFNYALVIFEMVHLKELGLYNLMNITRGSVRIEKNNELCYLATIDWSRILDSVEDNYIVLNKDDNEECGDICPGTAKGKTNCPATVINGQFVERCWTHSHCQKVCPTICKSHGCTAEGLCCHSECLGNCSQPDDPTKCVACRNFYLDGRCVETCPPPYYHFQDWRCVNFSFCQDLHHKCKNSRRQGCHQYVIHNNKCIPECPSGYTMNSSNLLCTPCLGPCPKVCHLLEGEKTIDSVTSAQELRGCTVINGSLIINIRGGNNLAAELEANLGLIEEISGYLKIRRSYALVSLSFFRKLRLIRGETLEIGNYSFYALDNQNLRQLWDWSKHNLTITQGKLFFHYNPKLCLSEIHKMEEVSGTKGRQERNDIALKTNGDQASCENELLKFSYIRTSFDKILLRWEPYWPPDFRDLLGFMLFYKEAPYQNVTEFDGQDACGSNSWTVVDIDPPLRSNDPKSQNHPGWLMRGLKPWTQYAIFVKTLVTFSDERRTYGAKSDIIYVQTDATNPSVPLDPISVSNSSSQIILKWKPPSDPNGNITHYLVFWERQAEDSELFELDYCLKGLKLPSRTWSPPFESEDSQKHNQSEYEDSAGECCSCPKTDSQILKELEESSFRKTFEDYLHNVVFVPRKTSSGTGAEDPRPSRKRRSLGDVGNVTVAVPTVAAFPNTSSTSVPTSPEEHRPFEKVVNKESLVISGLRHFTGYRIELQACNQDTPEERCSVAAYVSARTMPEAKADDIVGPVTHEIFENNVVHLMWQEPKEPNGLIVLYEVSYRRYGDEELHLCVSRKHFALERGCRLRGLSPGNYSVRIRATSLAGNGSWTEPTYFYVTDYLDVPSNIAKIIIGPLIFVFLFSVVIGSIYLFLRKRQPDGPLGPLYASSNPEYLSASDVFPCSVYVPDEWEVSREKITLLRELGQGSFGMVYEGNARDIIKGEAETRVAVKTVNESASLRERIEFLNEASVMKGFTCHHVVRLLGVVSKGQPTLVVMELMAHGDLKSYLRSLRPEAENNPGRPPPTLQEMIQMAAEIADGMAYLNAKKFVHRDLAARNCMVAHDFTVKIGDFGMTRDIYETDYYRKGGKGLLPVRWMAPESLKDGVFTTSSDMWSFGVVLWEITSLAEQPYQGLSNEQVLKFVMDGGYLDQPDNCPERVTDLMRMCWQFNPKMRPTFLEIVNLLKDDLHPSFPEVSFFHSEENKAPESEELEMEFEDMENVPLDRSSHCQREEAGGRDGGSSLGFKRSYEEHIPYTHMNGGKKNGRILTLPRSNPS
T1 sequence (Q9UK32 whole entry): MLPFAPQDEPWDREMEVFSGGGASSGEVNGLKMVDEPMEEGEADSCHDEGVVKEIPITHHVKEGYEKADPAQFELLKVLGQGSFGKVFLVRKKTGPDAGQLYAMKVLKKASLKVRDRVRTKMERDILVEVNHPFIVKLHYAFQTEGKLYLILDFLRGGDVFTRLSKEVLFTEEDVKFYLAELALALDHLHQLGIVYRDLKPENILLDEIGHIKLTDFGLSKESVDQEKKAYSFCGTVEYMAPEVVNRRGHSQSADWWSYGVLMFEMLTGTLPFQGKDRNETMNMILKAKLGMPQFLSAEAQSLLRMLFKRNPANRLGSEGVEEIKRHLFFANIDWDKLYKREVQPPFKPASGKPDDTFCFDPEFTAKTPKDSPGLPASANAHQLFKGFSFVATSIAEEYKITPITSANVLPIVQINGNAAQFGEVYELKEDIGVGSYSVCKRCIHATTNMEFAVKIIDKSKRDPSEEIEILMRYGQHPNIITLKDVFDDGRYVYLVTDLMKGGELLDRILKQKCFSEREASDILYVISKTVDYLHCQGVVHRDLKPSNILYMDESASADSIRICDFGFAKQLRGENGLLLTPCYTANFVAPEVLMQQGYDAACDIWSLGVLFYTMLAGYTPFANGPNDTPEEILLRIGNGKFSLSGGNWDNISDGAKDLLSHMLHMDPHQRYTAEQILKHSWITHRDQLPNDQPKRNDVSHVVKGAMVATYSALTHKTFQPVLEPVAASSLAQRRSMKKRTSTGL
Chain of CAMK4 (Q16566 whole entry): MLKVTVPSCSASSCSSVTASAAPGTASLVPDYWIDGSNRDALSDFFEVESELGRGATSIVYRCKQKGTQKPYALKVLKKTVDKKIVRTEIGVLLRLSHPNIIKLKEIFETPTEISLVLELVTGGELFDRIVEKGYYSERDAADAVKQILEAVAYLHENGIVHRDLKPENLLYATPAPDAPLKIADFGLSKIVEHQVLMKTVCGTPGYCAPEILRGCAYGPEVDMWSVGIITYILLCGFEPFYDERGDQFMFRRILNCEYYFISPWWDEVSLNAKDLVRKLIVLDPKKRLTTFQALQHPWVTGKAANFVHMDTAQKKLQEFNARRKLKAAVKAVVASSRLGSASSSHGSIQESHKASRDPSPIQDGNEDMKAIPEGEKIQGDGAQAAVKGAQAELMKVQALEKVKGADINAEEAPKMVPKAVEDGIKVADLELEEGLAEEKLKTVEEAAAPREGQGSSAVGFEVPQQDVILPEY

Take `Oc1ccc(C2=Cc3ccc(O)cc3OC2)cc1` [compound 1, idronoxil]: the remaining binding at 10 µM in [1] was determined as 76%; at KIT-autoinhibited, 60%; on PTK2B, 99%; at CAMK4 it was 100%; on INSR, 71%; at SNRK, 81%. Also, the remaining binding at 10 µM on ROCK1 amounted to 85%; at MAP3K11, 63%; at MAPK10 it was 93%; on TNNI3K, 99%; on BMP2K it was 86%; at PIK3C2B, 83%. The remaining binding at 10 µM on TGFBR2 amounted to 100%; on PAK7, 95%; at ZAK, 54%; on TAOK2 it was 90%; at CDK15, 99%; at TNK2, 91%. The remaining binding at 10 µM came to 78% on PKMYT1 and 100% on GRK1.
